Converted amounts (≈) assume the structure as drawn.
Organism: Oryctolagus cuniculus
Test: Minimum concentration of compound was evaluated for inhibiting iron-dependent lipid peroxidation of rabbit brain homogenate in vitro
Format: functional

| MIC [µM] | Structure (SMILES) |
| --- | --- |
| 9.1 (≈ 2.34 µg/mL) | COc1ccc2c(c1C(=O)O)Nc1ccccc1O2 |
| 0.35 (≈ 0.0988 µg/mL) | CN(O)C(=O)/C=C/c1ccc2c(c1)Nc1ccccc1O2 |
| 0.65 (≈ 0.167 µg/mL) | CN(O)C(=O)c1ccc2c(c1)Nc1ccccc1O2 |
| 0.41 (≈ 0.0993 µg/mL) | O=C(NO)c1ccc2c(c1)Nc1ccccc1O2 |
| 3.7 (≈ 1.01 µg/mL) | COc1ccc2c(c1C(=O)NO)Nc1ccccc1O2 |
| 0.22 (≈ 0.0531 µg/mL) | COC(=O)c1ccc2c(c1)Nc1ccccc1O2 |
| 0.44 (≈ 0.1 µg/mL) | O=C(O)c1ccc2c(c1)Nc1ccccc1O2 |
| 0.12 (≈ 0.0304 µg/mL) | O=C(O)/C=C/c1ccc2c(c1)Nc1ccccc1O2 |
| 0.19 (≈ 0.0534 µg/mL) | CCOC(=O)/C=C/c1ccc2c(c1)Nc1ccccc1O2 |
| 4.2 (≈ 1.01 µg/mL) | COC(=O)c1cccc2c1Nc1ccccc1O2 |
| 4.4 (≈ 1 µg/mL) | O=C(O)c1cccc2c1Nc1ccccc1O2 |
| 0.055 (≈ 0.0101 µg/mL) | c1ccc2c(c1)Nc1ccccc1O2 [PHENOXAZINE] |

— ChEMBL document CHEMBL1125975, “Enzymic and nonenzymic lipid peroxidation: inhibition by substituted phenoxazines” (Bioorg Med Chem Lett, 1991)
